Measurements taken from patent US8652533B2 (priority 2004, dated 2014).

Columns and labels:
SARS (Toronto-2 Strain) = experiment: microbe, parasite or virus in culture; format: cell-based, SARS coronavirus (SARSCoV); details: for ACTIVITY: conc. 1 μM; for cytoprotective effect in the assay (in words): tested concentration (1 μM)
SARSCoV, strain Urbani = format: cell-based, SARS coronavirus (SARSCoV)

Row | Compound | ACTIVITY (SARS (Toronto-2 Strain)) | cytoprotective effect in the assay (in words) (SARS (Toronto-2 Strain)) | inhibition at 1 µM (SARS (Toronto-2 Strain); Severe acute respiratory syndrome coronavirus, Vero 76, 72 h, read-out: % CPE (INHIBITION)) [%] | direct virucidal effect (in words) (SARSCoV, strain Urbani)
1 | Oc1cc(O)c2c(c1)O[C@@H](c1cc(O)c(O)c(O)c1)[C@H](O)C2 [(−)-Gallocatechin] | Inactive | – | – | –
2 | Oc1cc(O)c2c(c1)O[C@@H](c1ccc(O)c(O)c1)[C@@H](O)C2 [(+)-Epicatechin] | Inactive | – | – | –
3 | O=c1c(O)cc([C@H]2Oc3cc(O)cc(O)c3C[C@H]2O)cc2c([C@H]3Oc4cc(O)cc(O)c4C[C@H]3O)cc(O)c(O)c12 [free Theaflavin] | Active | – | – | –
4 | O=C(O[C@@H]1Cc2c(O)cc(O)cc2O[C@@H]1c1ccc(O)c(O)c1)c1cc(O)c(O)c(O)c1 [(−)-Epicatechin Gallate] | Active | had cytoprotective effect | – | –
5 | O=C(O[C@@H]1Cc2c(O)cc(O)cc2O[C@H]1c1ccc(O)c(O)c1)c1cc(O)c(O)c(O)c1 [(−)-Catechin Gallate] | Active | – | – | –
6 | Oc1cc(O)c2c(c1)O[C@H](c1ccc(O)c(O)c1)[C@@H](O)C2 [(+)-Catechin] | Inactive | not | – | –
7 | Oc1cc(O)c2c(c1)O[C@H](c1cc(O)c(O)c(O)c1)[C@H](O)C2 [(−)-Epigallocatechin] | Inactive | not | – | –
8 | Oc1cc(O)c2c(c1)O[C@H](c1cc(O)c(O)c(O)c1)[C@@H](O)C2 [(+)-Gallocatechin] | Inactive | not | – | –
9 | (−)-Gallocatechin Gallate | Active | had cytoprotective effect | – | –
10 | (−)-Catechin | Inactive | – | – | –
11 | Theaflavindigallate-A | Inactive | – | – | –
12 | Oc1cc(O)c2c(c1)O[C@H](c1ccc(O)c(O)c1)[C@H](O)C2 [(−)-Epicatechin] | Inactive | not | – | –
13 | (−)-Epigallocatechin Gallate | Active | had cytoprotective effect | – | –
14 | O=C(O[C@@H]1Cc2c(O)cc(O)cc2O[C@@H]1c1cc(O)c(=O)c2c(O)c(O)cc([C@H]3Oc4cc(O)cc(O)c4C[C@H]3OC(=O)c3cc(O)c(O)c(O)c3)c2c1)c1cc(O)c(O)c(O)c1 [Theaflavindigallate] | Active | – | 100 | –
15 | catechin | – | – | – | very inhibitory to the virus
16 | Theaflavindigallate-B | Inactive | – | – | –
